Source: EP0603240B1, “SAFENING HERBICIDAL PYRAZOLYLSULFONYLUREAS” (priority 1991, dated 1993)

How the values were obtained:
Type in all cases: in vivo
[1] = tested on: corn; assay: Example 10, Procedure II: Herbicide No. 1 + propachlor (No. 5) with antidotes
Experimental: (§1) Containers were filled and compacted with a fumigated silt loam top soil to a depth of about 1.3 cm from the top of the container. A first container was designated as an untreated control, a second container was designated as a herbicide control, and a third container was designated as a herbicide + antidote test container. Each of the containers was seeded with a crop species. A measured amount of herbicide dispersed or dissolved in acetone was applied to a measured quantity of soil. To this same quantity of soil treated with herbicide, there was added a measured amount of antidote dispersed or dissolved in acetone. The quantity of soil treated with the herbicide and antidote was thoroughly mixed to incorporate the herbicide and antidote in the soil uniformly. The seed bed in the third container of soil was covered with the soil treated with the herbicide and antidote and the container was leveled. For each test series, the seed beds of the first and second containers were likewise covered by soil layers. the cover layer of the first container was not treated with herbicide or antidote.
(§2) The containers were then placed on a bench in a greenhouse and sub-irrigated as required for the duration of the test. […] Plant response is measured in terms of percent injury. Antidote efficacy is indicated as the difference in plant injury by the herbicide(s) without the antidote and with the antidote.
(§3) This procedure is the same as Procedure I, but modified in the manner that after incorporation of the chemicals (herbicide and antidote) the containers with the covered seedbed were treated with an initial overhead irrigation equivalent to 0.6 cm rainfall, then subsequently sub-irrigated as required on greenhouse benches.
In this test, the safening effect of various antidotes on the herbicidal combination of Herbicide No. 1 and another α-chloroacetanilide co-herbicide, propachlor, (Herbicide No. 5) was investigated. Propachlor is the active ingredient in the commercial herbicide RAMROD®. Procedure II was also used in this test as in the preceding example.

[2] = tested on: corn; assay: Example 1, greenhouse Procedure II: antidotes against Herbicide No. 1
Experimental: as §1, §2, §3
In the series of greenhouse tests described below, for routine screening purposes the herbicide/antidote compositions were tested in crop/weed combinations involving corn as the crop and either or both of the weeds barnyardgrass (Echinochloa crusgalli), a monocotyledonous weed, and velvetleaf (Abutilon theophrasti), a dicotyledonous weed. In the tables below, these weeds are indicated by the symbols "BYG" and "VL", respectively.
This example was designed to investigate the antidotal efficacy of a plurality of antidotes against Herbicide No. 1 in corn in the presence of barnyard grass and velvetleaf. The antidotes used in this example were Antidote Nos. 1-10, 12, 13 and 15.
The test in this example was conducted as described above for Procedure II. The antidotes were applied to the soil cover layer by pipet after spraying on the herbicide followed by incorporation and simulated rain.

[3] = tested on: corn; assay: Example 16, Procedure II: Herbicide No. 1 + EPTC (No. 4, EPTAM) with antidotes; conditions: Herbicide No.1 1.12 kg/ha + EPTAM 6.72 kg/ha; antidote 2.24 kg/ha
Experimental: as §1, §2, §3
The test procedure used in these experiments was that of Procedure II described above. The antidotes were applied to a soil cover layer by pipet after spraying the herbicides onto the soil, followed by incorporation and overhead irrigation. […]

[4] = tested on: barnyardgrass (Echinochloa crusgalli); assay: Example 3, Procedure I: antidotes against Herbicide No. 1
Procedure, shortened: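 Corn seeded in silt loam in the greenhouse, covered with a soil layer into which herbicide and antidote (each in acetone) were incorporated, with untreated and herbicide-only controls; sub-irrigated. Herbicide No. 1 at 4.48 down to 0.56 kg/ha. Barnyardgrass response scored as percent injury, with antidote efficacy as the injury difference without vs with antidote.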

[5] = Herb. No. 1 0.56 kg/ha + antidote 2.24 kg/ha

Q: How did the “% Injury Corn” value ([1]; Herbicide No.1 0.14 kg/ha + Herbicide No.5 4.48 kg/ha, antidote rate 2.24 kg/ha) turn out when `CC1(C)OC(c2ccco2)CN1C(=O)C(Cl)Cl` (centres unmarked) [compound 15] was run?
A: Its value is 0%.

Q: What about the “% Injury Corn” value ([1]; Herbicide No.1 0.14 kg/ha + Herbicide No.5 4.48 kg/ha, antidote rate 8.96 kg/ha) of the same compound?
A: Its value is 0%.

Q: And the “% Injury Corn” value ([1]; Herbicide No.1 0.56 kg/ha + Herbicide No.5 4.48 kg/ha, antidote rate 2.24 kg/ha)?
A: Its value is 10%.

Q: And the “% Injury Corn” value ([1]; Herbicide No.1 0.56 kg/ha + Herbicide No.5 4.48 kg/ha, antidote rate 8.96 kg/ha)?
A: Its value is 10%.

Q: And the “% Injury Corn” value ([2]; Herb. No. 1 0.14 kg/ha + antidote 2.24 kg/ha)?
A: The value was 5%.

Q: And the “% Injury Corn” value [2, 5]?
A: The value was 5%.

Q: And the “% Injury Corn” value [3]?
A: Its value is 5%.

Q: What about the “% Injury BYG” value ([4]; Herb. No. 1 0.56 kg/ha + antidote 0.56 kg/ha) of the same compound?
A: Its value is 50%.

Q: What about the “% Injury BYG” value [4, 5] of the same compound?
A: The value was 35%.

Q: And the “% Injury BYG” value ([4]; Herb. No. 1 0.56 kg/ha + antidote 8.96 kg/ha)?
A: Its value is 10%.

Q: What about the “% Injury BYG” value ([4]; Herb. No. 1 1.12 kg/ha + antidote 0.56 kg/ha) of the same compound?
A: The value was 75%.

Q: What about the “% Injury BYG” value ([4]; Herb. No. 1 1.12 kg/ha + antidote 2.24 kg/ha) of the same compound?
A: The value was 60%.

Q: And the “% Injury BYG” value ([4]; Herb. No. 1 1.12 kg/ha + antidote 8.96 kg/ha)?
A: Its value is 60%.

Q: What about the “% Injury BYG” value ([4]; Herb. No. 1 2.24 kg/ha + antidote 0.56 kg/ha) of the same compound?
A: The value was 60%.

Q: And the “% Injury BYG” value ([4]; Herb. No. 1 2.24 kg/ha + antidote 2.24 kg/ha)?
A: The value was 70%.

Q: What about the “% Injury BYG” value ([4]; Herb. No. 1 2.24 kg/ha + antidote 8.96 kg/ha) of the same compound?
A: The value was 50%.

Q: And the “% Injury BYG” value ([4]; Herb. No. 1 4.48 kg/ha + antidote 0.56 kg/ha)?
A: The value was 75%.

Q: And the “% Injury BYG” value ([4]; Herb. No. 1 4.48 kg/ha + antidote 2.24 kg/ha)?
A: Its value is 70%.

Q: And the “% Injury BYG” value ([4]; Herb. No. 1 4.48 kg/ha + antidote 8.96 kg/ha)?
A: The value was 80%.

Q: What about the “% Injury BYG” value ([4]; antidote 8.96 kg/ha alone, no herbicide) of the same compound?
A: The value was 0%.
